A word on the IC50: it is the concentration that gives 50% inhibition.

Active and inactive are the calls of the source.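 How the source made its calls: active means drop in polymyxin IC50 at top compound dose in wild type more than twice that in PhoP-lacking strain; inactive means the rest.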

Assay [1] in a line: polymyxin IC50 shift, WT versus phoP- Salmonella – S. Typhimurium, WT and phoP- strains, round 3, mechanism study for PhoP regulon inhibitor project, late-stage follow-up (AID 449735). The note with it: S. Typhimurium WT vs phoP-, polymyxin IC50 shift, OD600, at 150 µM, stronger effect = higher value.
For assay [2], the system named is S. Typhimurium WT vs phoP-, polymyxin IC50 shift, OD600. The description is as above.
Setting [3] is: measured here: WT strain IC50 shift.
[4] abbreviates: measured here: phoP- strain IC50 shift.

For `CCn1cc(C(=O)O)c(=O)c2cc(F)c(N3CCN(C(=S)Nc4ccccc4C)CC3)cc21`, the polymyxin IC50 shift in assay [1] (setting [3]) is 15.9; in assay [1] (setting [4]), 3.07. For the same compound, in assay [2], the IC50 is 30 µM.

As for `O=C(Nc1ccc(Cl)cc1)N1CCCN(Cc2ccc(Br)cc2)C1`, in assay [1], the polymyxin IC50 shift difference WT - phoP- was -1.52 (inactive). Further, the polymyxin IC50 shift in assay [1] (setting [3]) stood at 1.77; in assay [1] (setting [4]) it was 3.29.

As for `CCn1cc(C(=O)O)c(=O)c2cc(F)c(N3CCN(C(=S)Nc4ccccc4OC)CC3)cc21`, the polymyxin IC50 shift difference WT - phoP- in assay [1] was -0.94 (inactive). For the same compound, the polymyxin IC50 shift in assay [1] (setting [3]) is -2.11; in assay [1] (setting [4]), -1.17.

On to `O=C(Nc1ccc(Cl)cc1)N1CCCN(Cc2ccccc2Br)C1`, for which the polymyxin IC50 shift difference WT - phoP- in assay [1] was -4.93 (inactive). The results for the polymyxin IC50 shift in assay [1] (setting [3]) and in assay [1] (setting [4]) were -2.84 and 2.09, respectively.

Regarding `S=C(NCCc1ccc(Cl)cc1)Nc1ccncc1`, in assay [1], the polymyxin IC50 shift difference WT - phoP- was -0.21 (inactive). For the same compound, the figures for the polymyxin IC50 shift in assay [1] (setting [3]) and in assay [1] (setting [4]) were 0.05 and 0.26, respectively.

`O=C(Nc1ccc(I)cc1)N1CCCN(Cc2ccccc2F)C1`: the polymyxin IC50 shift difference WT - phoP- in assay [1] is -8.3 (inactive). Moreover, the polymyxin IC50 shift in assay [1] (setting [3]) turned out to be 9.92; in assay [1] (setting [4]) it was 18.2.

(Values after PubChem BioAssay AID449735 (Southern Research Specialized Biocontainment Screening …, 2010).)
